Test results as given in patent publication US10351759B2, “Methods of assessing oil field saturation through use of reactive partitioning tracers” (RESTRACK AS, priority 2014, dated 2019).

Key:
Assay type in all cases: physicochemical
[1] = oil/water partition coefficient (K-value), static batch experiments, model oil
[2] = oil/water partition coefficient (K-value), static batch experiments, field oil phases North field 1 and North field 2; details: ionic strength in aqueous phase 0.776, pH 6.2, 50° C.
[3] = K-values of tested compounds A to G
From the text: Some tested compounds having other combinations of substitution and hydroxyalkyl group position include compounds A to G shown in FIG. 3.
These compounds have K-values measured as follows:
The K-values can vary with pH, as shown below for compounds B and F: […]

[4] = pH (aqueous phase) 6.2, ionic strength in aqueous phase 0.776, model oil (isooctane 60%/toluene 30%/1-octanol 10%), 50° C.
[5] = pH (aqueous phase) 7.0, ionic strength in aqueous phase 0.776, model oil (isooctane 60%/toluene 30%/1-octanol 10%), 50° C.
[6] = pH (aqueous phase) 8.0, ionic strength in aqueous phase 0.776, model oil (isooctane 60%/toluene 30%/1-octanol 10%), 50° C.

oil/water partition coefficient, K-value ([1]; pH 6.2) | oil/water partition coefficient, K-value ([1]; pH 7) | oil/water partition coefficient, K-value ([1]; pH 8) | Compound | oil/water partition coefficient, K-value [1, 4] | oil/water partition coefficient, K-value [1, 5] | oil/water partition coefficient, K-value [1, 6] | oil/water partition coefficient, K-value ([2]; oil phase North field 1) | oil/water partition coefficient, K-value ([2]; oil phase North field 2) | K-value ([3]; pH (aqueous phase) 6.2) | K-value ([3]; pH (aqueous phase) 7.0) | K-value ([3]; pH (aqueous phase) 8.0)
– | – | – | 2,3-difluoro hydroxybenzoic acid [reference compound] | 0.0 | 0.0 | 0.0 | – | – | – | – | –
0.0 | 0.0 | 0.0 | O=C(O)c1ccc(CO)cc1F [2-fluoro-4-(hydroxymethyl) benzoic acid, 2-Fluoro-4-(hydroxymethyl)benzoic acid] | – | – | – | 0.0 | 0.0 | – | – | –
– | – | – | COC(=O)c1c(F)ccc(CO)c1F [B, Methyl ester of 2-6-difluoro-3-hydroxymethyl benzoic acid] | – | – | – | – | – | 3.0 | 2.8 | 2.4
– | – | – | CCCCOC(=O)c1ccc(CO)cc1F [Butyl ester of 2-fluoro-4-(hydroxymethyl) benzoic acid] | 127.5 | 126.1 | 132.2 | 18.7 | 23.6 | – | – | –
– | – | – | CCOC(=O)c1ccc(CO)cc1F [Ethyl ester of 2-fluoro-4-(hydroxymethyl) benzoic acid] | 10.9 | 11.2 | 11.8 | 1.6 | 2.5 | – | – | –
– | – | – | CCOC(=O)c1cc(F)cc(CO)c1 [F, Ethyl ester of 3-fluoro-5-hydroxymethyl benzoic acid] | – | – | – | – | – | 6.7 | 6.3 | 6.1
– | – | – | COC(=O)c1ccc(CO)cc1F [Methyl ester of 2-fluoro-4-(hydroxymethyl) benzoic acid] | 3.2 | 3.4 | 3.3 | 0.6 | 0.8 | – | – | –
– | – | – | CCCOC(=O)c1ccc(CO)cc1F [Proply ester of 2-fluoro-4-(hydroxymethyl) benzoic acid] | 41.7 | 44.2 | 48.7 | 5.9 | 7.5 | – | – | –
